Assay results from patent US12070452B2, “Compounds targeting HSP110 protein for cancer treatment” (INSERM (Institut National de la Santé et de la Recherche …, priority 2018, dated 2024).
Entries after “also recorded” stand apart in the source; their conditions may differ.

What was measured:
HSP110:STAT3 complex = molecular target: T1, HSP110:STAT3 complex (Homo sapiens, UniProt Q92598); assay: Immunoprecipitation of HSP110:STAT3 complex in SW480 cells; assay type: cell-based; details: SW480 shCtrl cells, 10 μM, 48 h
T1 construct: disrupting HSP110:STAT3 complex within the cell using human colorectal SW480 cancer cells; endogenous in cells; host or cells: SW480 cells carrying control shRNA (shCtrl); sh110 cells as HSP110-depleted control
T1 sequence (Q92598 2-858 limits assumed, one chain of several): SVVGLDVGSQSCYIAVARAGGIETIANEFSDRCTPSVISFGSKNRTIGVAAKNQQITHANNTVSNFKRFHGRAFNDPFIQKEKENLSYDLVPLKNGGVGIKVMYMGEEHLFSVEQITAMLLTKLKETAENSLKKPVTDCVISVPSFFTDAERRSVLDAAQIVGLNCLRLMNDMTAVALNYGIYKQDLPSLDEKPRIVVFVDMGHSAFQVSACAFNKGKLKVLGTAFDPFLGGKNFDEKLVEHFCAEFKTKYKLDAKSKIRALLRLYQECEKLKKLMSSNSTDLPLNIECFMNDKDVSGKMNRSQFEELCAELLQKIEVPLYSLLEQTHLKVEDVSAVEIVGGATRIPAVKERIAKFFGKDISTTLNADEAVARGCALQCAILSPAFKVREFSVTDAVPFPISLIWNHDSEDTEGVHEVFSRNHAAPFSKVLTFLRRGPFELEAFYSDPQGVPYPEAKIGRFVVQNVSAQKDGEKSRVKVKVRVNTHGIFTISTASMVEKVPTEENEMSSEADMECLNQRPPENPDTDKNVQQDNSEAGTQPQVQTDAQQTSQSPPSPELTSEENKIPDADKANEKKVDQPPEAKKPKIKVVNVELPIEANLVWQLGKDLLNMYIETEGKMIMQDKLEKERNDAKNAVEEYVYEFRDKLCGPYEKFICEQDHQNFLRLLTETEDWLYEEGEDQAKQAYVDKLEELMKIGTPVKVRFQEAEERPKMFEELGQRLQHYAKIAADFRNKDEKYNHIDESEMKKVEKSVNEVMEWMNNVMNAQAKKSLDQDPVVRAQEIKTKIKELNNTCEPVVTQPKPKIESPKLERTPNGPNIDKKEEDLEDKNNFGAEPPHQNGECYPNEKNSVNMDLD
Procedure: FIG. 2A: Immunoprecipitation (IP) analysis of HSP110 protein (first line), STAT3 protein (second line) compared with total Immunoglobuline (Ig) and actin in SW480 cells treated with (from left to the right column) non-relevant antibody as control (called NT a Normal rabbit IgG (sc-2027) from Santa Cruz Biotechnologies), compound 52 (related to formula (III)), compound 33 (related to formula (II)), compound 51 (related to formula (IV)) and comparative compound 61 at a concentration of 10 μM during 48 h on shCtrl cells transfected with shRNA for shRNA control (referenced ShCtrl IP:STAT3 for the five first columns) or HSP110-silencing (sh110) (referenced sh110-IP:STAT3 for the two last columns) (from the left to the right columns). Immunoprecipitation analysis of HSP110 (first line), STAT3 (second line) compared with total Ig and actin (second blot in the right) is observed with shCtrl cells transfected with shRNA for shRNA control (shCtrl) or HSP110-silencing (sh110) (left to right columns).
FIG. 2B: Quantification of HSP110:STAT3 disruption in percentage considering the total amount of HSP110 protein normalized by the signal intensity of the Ig band of FIG. 1 panel A. (Ordinate: Percentage of STAT3:HSP110 protein interaction (scale 50)). The histogram measured quantification in percentage for ShCtrl IP: STAT3 treated with Ctrl, compounds 52, 33, 51 and comparative compound 61, and for shCtrl cells transfected with shRNA for shRNA control referenced ShCtrl IP: STAT3) or HSP110-silencing (sh110) (referenced sh110-IP: STAT3) (from the left to the right column)
Immunoprecipitation test were realized on human colorectal cancer cells (SW480 and HCT116 cell lines), using a control depleted in HSP110 called Sh110 and a not depleted cells in HSP110. STAT3 phosphorylation is then […] by compounds 33 and 52. Depletion of HSP110 in the negative control blocked the phosphorylation of STAT3 without affecting STAT3 overall levels (FIGS. 2 and 3).

CT26 cells = assay: Flow cytometric analysis of cell death (Annexin V / 7-AAD) in CT26 cells; assay type: cell-based, mouse; details: 10 μM, 96 h
Procedure: FIG. 5A: Flow cytometric analysis of cell death in CT26 cells treated with the compound 33 (at the bottom left), compound 52 (at the bottom middle), comparative compound 61 (at the bottom right) at 10 μM during 96 h compared with Control (DMSO) (at the top left), and Cisplatin (at the top middle and top right). Live cells were double negative for 7-AAD (Y axis) and Annexin V (X axis), early apoptotic cells were positive for Annexin V, late apoptotic cells were positive for Annexin V and 7-AAD ([…]) and dead cells were positive for 7-AAD only.
FIG. 5B: Quantification of cell viability (in percentage) from flow cytometry data are represented (Control, cells, compounds 33, 52 and 61 from the left to the right bars). (Abscissa Negativity of 7-AAD; Ordinate Negativity of Annexin V).
We then analyzed cell death in CT26 cells treated with 10 μM during 96 h of compounds 33, 52 and 61 by flow cytometry. Cells were also treated with a well know anti-cancer compound, called cisplatin. Cells were marked for 7-aminoactinomycin D, which exclusively bind on death cells and for Annexin V, a well-known indicators of early stage apoptosis, thanks to its ability to bind to phosphatidylserine.

NFκB signaling pathway = assay: Western blot of NFκB signaling and Myd88 in DLBCL cell lines; assay type: cell-based, human; details: for IkB phosphorylation (P-IKB): two DLBCL cell lines, 24 h of treatment
Procedure: FIG. 10B: Expression of HSP110 (first line), P-P65 (S276) (second line), P65 (third line), Myd88 (fourth line) and Actin (fifth line) in TMD8 human B cell lymphoma cell line (left part of FIG. 10B) or in HBL1 human diffuse large B-cell lymphoma cell line (right part of FIG. 10B), both cell lines being treated with Control (DMSO) and compound 33.
FIG. 10C: Expression, after 24 h of treatment, of HSP110 (first line), P-IKB (second line), IKB (third line) and Actin (fourth line) in TMD8 human B cell lymphoma cell line (right part of FIG. 10C) or in OCI-Ly3 human diffuse large B-cell lymphoma cell line (left part of FIG. 10C), both cell lines being treated with Control (DMSO), control compound 61, compound 52 and compound 33.

Bcl2 and Bcl-xL = assay: Western blot of anti-apoptotic proteins Bcl2 and Bcl-xL in DLBCL cell lines; assay type: cell-based, human; details: TMD8 and HBL1, 76 h in vitro treatment
Procedure: FIG. 10D: Expression analysis of BcL2 (first line), BcL-XL (second line), and Actin (third line) in TMD8 human B cell lymphoma cell line or in HBL1 human diffuse large B-cell lymphoma cell line, both cell lines being treated with Control (DMSO), compound 33 and compound 52.
It has also been shown that compounds 33 and 52 reduce the expression of the anti-apoptotic proteins Bcl2 and Bcl-xL in these two human diffuse large B-cell lymphoma cell lines, as determined by Western blotting after a 76 h in vitro treatment with compound 33 or 52.

SMILES	percentage of interaction of STAT3:HSP110 (HSP110:STAT3 complex)	cell death / apoptosis (Annexin V and 7-AAD marking) (CT26 cells)	Myd88 expression (NFκB signaling pathway; TMD8 and HBL1 DLBCL cell lines)	NFκB signaling pathway (P-p65) (NFκB signaling pathway; TMD8 and HBL1 DLBCL cell lines)	IkB phosphorylation (P-IKB) (NFκB signaling pathway)	expression of anti-apoptotic protein Bcl2 (Bcl2 and Bcl-xL)	expression of anti-apoptotic protein Bcl-xL (Bcl2 and Bcl-xL)
COc1ccc(-c2ncc(-c3ncc(-c4cc(OC)c(OC)c(OC)c4)cc3/C=C/c3ccccc3)cc2C)cc1OC [compound 33, (E)-6′-(3,4-Dimethoxyphenyl)-5′-methyl-3-styryl-5-(3,4,5-trimethoxyphenyl)-2,3′-bipyridine]	20%	don't seem to be marked; also recorded: does not allow detecting significally apoptosis	reduces	reduces; also recorded: strong decrease	decrease	reduce	reduce
COc1cc(-c2cnc(-c3cnc(-c4cc(OC)c(OC)c(OC)c4)c(C)c3)c(/C=C/c3ccccc3)c2)cc(OC)c1OC [compound 52, (E)-5′-Methyl-3-styryl-5,6′-bis(3,4,5-trimethoxyphenyl)-2,3′-bipyridine]	5%	don't seem to be marked; also recorded: does not allow detecting significally apoptosis	–	strong decrease	decrease	reduce	reduce
